We go through 1 compound from patent publication US20230035688A1, “METHOD FOR TREATING GASTRIC CANCER BY BLOCKING CCL28 CHEMOTACTIC PATHWAY” (SHANGHAI JIAO TONG UNIVERSITY, priority 2019, published 2023).

In one assay the test system is CCL28 protein. The assay can be described thus: CCL28 protein expression in stomach of H. felis/MNU in situ gastric cancer mice (Western blotting, ELISA). Format: in vivo, mouse. The following applies: intraperitoneal injection; Western blotting (FIG. 3A) and ELISA (FIG. 3B). From the text:
The proteins in gastric cancer cell line and mouse gastric tissue were lysed with RIPA lysate (Thermo Scientific) added with protease inhibitor (Roche), and the protein concentration was detected using BCA Protein Assay Reagent (Thermo Scientific). The detected proteins were as follows: β-catenin (Abcam), CCL28 (R & D Systems), active β-catenin (Merck), GAPDH (Abcam) and β-tubulin (Abcam).
In order to establish gastric cancer mouse mode induced by Helicobacter felis (H. felis) and N-Methyl-N-nitrosourea (MNU), 8-week-old wild-type mice were fed by gavage with H. felis strain (ATCC 49179) three times a week, followed by given drinking water containing 240 ppm MNU every other week for a total of 12 weeks.

A further assay has as its system colon tumor cell lines. The following applies: cited from earlier work.
Another assay has as its system CCL28 promoter. The assay can be described thus: CCL28 promoter luciferase reporter gene activity with β-catenin overexpression. Format: cell-based, human. The following applies: FIG. 2D. An excerpt: (§1) Wnt/β-catenin reporter plasmid M50 Super 8X TOPFlash (Addgene plasmid #12456) and mutant control M51 Super 8X FOPFlash (Addgene plasmid #12457) are gifts from Randall Moon. The promoter of the human CCL28 gene (2.8 kb, −2576/+205 relative to the transcriptional start site) was cloned into the firefly luciferase reporter gene construct pGL4. Mutations of potential TCF/LEF binding sites on the CCL28 promoter were introduced using the Hieff Mut™ Multisite Directed Mutagenesis Kit (Yeasen, Shanghai) to produce a mutant CCL28 promoter report construct (pGL4-CCL28.mut). The plasmids were transfected using a jetPRIME transfection reagent (Polybus Transfection). Transfection efficiency was standardized by co-transfection with a pRL-CMV reporter gene containing the Ranilla Luciferase gene. Firefly and Ranilla luciferase activities were measured using a Dual-Glo luciferase assay system (Promega).
(§2) In this Example, the correlation between CCL28 and β-catenin signaling pathway structure is analyzed in combination with bioinformatics, and then the relationship between the two is verified in the cell model. […] After using β-catenin/TCF, the transcriptional activity of CCL28 promoter was detected after shRNA knockdown of TCF/LEF transcription factor family members or overexpression of TCF/LEF members.
Background: Reporter assays use an easily measured gene product as a stand-in for the process of interest.

Assay [1] has as its system Wnt pathway reporter gene TOPflash. The assay is described as follows: Wnt pathway reporter gene TOPflash luciferase activity with β-catenin overexpression. Format: cell-based, human. The following applies: FIG. 2D.
Description: as §1, §2

Turning to `Cc1cc(/C=C2\SC(=O)N(c3ccccc3)C2=O)c(C)n1-c1cccnc1` [iCRT14], the “expression of CCL28 protein in the stomach” value in the assay with CCL28 protein is reported as “significantly reduces the expression of CCL28 protein in the stomach”. The cell cycle arrest entry in the assay on colon tumor cell lines is reported as “G0/G1 arrest”. Moreover, the “up-regulation effect of β-catenin on CCL28 promoter activity” value with CCL28 promoter is “reduces the up-regulation effect of β-catenin on CCL28 promoter activity”. The “activity of Wnt pathway reporter gene TOPflash” value in assay [1] is “reduced the activity of both reporter genes”.
